Assay results taken from patent US4737518A, “Lipid derivatives, their production and use” (Takeda Chemical Industries, Ltd., priority 1984, dated 1988).
Counter-ions that a name gives are not always drawn.

Legend:
PAF-induced hypotension = test: Restoring activity against PAF-induced hypotension; format: in vivo, rat (male S.D.); details: 3 min after PAF 1 μg/kg i.v., 1 min after test drug
Protocol: Restoring activity against PAF-induced hypotension
Male S.D. rats, aged 16 weeks, were employed.
Under anesthesia with pentobarbital, cannulas were inserted into the femoral artery and vein of rats for measurement of blood pressure and for administration of a drug, respectively. Three (3) minutes after intravenous administration of 1 μg/kg (0.25% BAS physiological saline solution; volume of 0.2 ml/kg) of PAF, a test drug (physiological saline solution; volume of 0.5 ml/kg) was administered intravenously, and blood pressure was measured for subsequent 1 hour.
The ratio of hypertension by the test drug to hypotension by PAF was taken as a restoration rate.
Restoration rate (%)=[(Blood pressure just before i.v. administration of a test drug)-(Blood pressure 1 min. after i.v. administration of a test drug)/(Blood pressure just before i.v. administration of PAF)-(Blood pressure just before i.v. administration of a test drug)]×100

PAF-induced death = test: Prevention activity against PAF-induced death in mice; format: in vivo, mouse (male Jc1-ICR); details: for (Mice survived)/(mice employed): PAF 50 μg/kg i.v., control 3/16
Protocol: Prevention activity against PAF-induced death in mice
The test drug was investigated for the preventive activity against shock death to be brought about within 30 min. after 50 μg/kg of PAF in the form of 0.1 ml/kg physiological saline solution was given intravenously to a male Jc1-ICR mouse. The test drug was administered intravenously 5 min. before the injection of PAF.
In accordance with the same procedure as described in Experiment Example 2, the test compounds were investigated for the preventive activity against PAF-induced death in mice.

[1] = tested on: rabbit platelet aggregation by PAF; test: Inhibitory activity on rabbit platelet aggregation by PAF; format: cell-based; details: Oryctolagus cuniculus, PAF 1×10^-8 M, read-out: rate of inhibition of rabbit platelet aggregation by PAF; for inhibition at 1 µM: test drug 1 × 10^-6 M; for inhibition at 30 µM: test drug 3 × 10^-5 M; for inhibition at 3 µM: test drug 3 × 10^-6 M; for inhibition at 0.3 µM: test drug 3 × 10^-7 M
HL-60 cells = test: Effect on inducing differentiation of HL-60 cells (NBT-positive cells); format: cell-based, human; details: 6 days; for Emax: Homo sapiens, HL-60, 144 h, at optimal conc., NBT-positive relative to live cells, read-out: Maximum differentiation extent: Differentiation
Protocol: Assay of the effects on inducing differentiation of HL-60 cells (human promyelocytic leukemia cells) and Neuro-2a cells (mouse neuroblastoma cells): RPMI-1640 medium (Flow Laboratories, Inc.) supplemented with 20% fetal calf serum (M.A. […] The culture was incubated at 37° C. in a 5% CO2 incubator for 6 days. […] The reaction was allowed to proceed at 37° C. for 20 minutes. The reaction was stopped by cooling with ice, and the cells were washed by means of centrifugation, followed by collecting 3-5×10^4 cells and by subjecting to centrifugation using Cytospin centrifuge to prepare a cell smear, which was fixed with methanol and stained with Kernechtrot solution. On each cell smear, the percentage of NBT-positive cells relative to live cells, […] by examination of a minimum of 200 cells, was expressed as the differentiation extent.

[2] = Table 4, 1.0 mg/kg i.v., control 24%
[3] = Table 4, 0.3 mg/kg i.v., control 24%

| SMILES | Survival rate (PAF-induced death; [2]) | inhibition at 30 µM [1] | inhibition at 3 µM [1] | Restoration rate (PAF-induced hypotension; 0.5 mg/kg i.v.) | inhibition at 0.3 µM [1] | Maximum differentiation extent: Optimal conc. (HL-60 cells) | Emax (HL-60 cells) | also measured |
| --- | --- | --- | --- | --- | --- | --- | --- | --- |
| CCCCCCCCCCCCCCCCCCNC(=O)OCC(COC(=O)N(CC[N+](C)(C)C)C(C)=O)OC (centres unmarked) [Example 25, 3-O-[N-Acetyl-N-(2'-trimethylammonioethyl)]carbamoyl-2-O-methyl-1-O-octadecylcarbamoylglycerol iodide] | 94% | 100% | 100% | – | – | – | – | Restoration rate (PAF-induced hypotension; 1.0 mg/kg i.v.): 69%; inhibition at 1 µM [1]: 40% |
| CCCCCCCCCCCCCCCCCCNC(=O)OCC(COC(=O)N(CC[N+]1(C)CCCC1)C(=O)OC)OC (centres unmarked) [Example 43, 3-O-[N-Methoxycarbonyl-N-(2'-N-methylpyrrolidinioethyl)]carbamoyl-2-O-methyl-1-O-octadecylcarbamoylglycerol iodide] | 100% | 100% | 100% | 83% | – | – | – | – |
| CCCCCCCCCCCCCCCCCCOCC(CN1CC(=O)N(CC[N+](C)(C)C)C1=O)OC(C)=O (centres unmarked) [Example 91, 1-[1-(2-Acetoxy-3-ocatadecyloxy)propyl]-3-(2-trimethylammonioethyl)hydantoin chloride.] | 100% | 100% | 100% | 77% | 78% | – | – | – |
| CCCCCCCCCCCCCCCCCCOCC(COC(=O)N(CC[N+](C)(C)C)C(C)=O)OC(C)=O (centres unmarked) [Example 3, 2-O-Acetyl-3-O-[N-acetyl-N-(2'-trimethylammonioethyl)]carbamoyl-1-O-octadecylglycerol iodide] | – | 100% | 100% | 48% | – | – | – | Survival rate (PAF-induced death; 0.1 mg/kg i.v. 5 min before PAF 50 μg/kg i.v., control 19%): 38%; (Mice survived)/(mice employed) (PAF-induced death; 0.1 mg/kg i.v.): 3/8; Survival rate (PAF-induced death; 1.0 mg/kg i.v. 5 min before PAF 50 μg/kg i.v., control 19%): 100%; (Mice survived)/(mice employed) (PAF-induced death; 1.0 mg/kg i.v.): 8/8; prevention of PAF-induced death (conclusion) (PAF-induced death; 0.1 and 1 mg/kg i.v.): potent drug for prevention of PAF-induced death; inhibition at 1 µM [1]: 86% |
| CCCCCCCCCCCCCCCCCCOCC(CN1CC(=O)N(CC[n+]2ccsc2)C1=O)OC(C)=O (centres unmarked) [Example 92, 1-[1-(2-Acetoxy-3-octadecyloxy)propyl]-3-(2-thiazolioethyl)hydantoin chloride] | 100% | 100% | 100% | 77% | – | – | – | Survival rate (PAF-induced death; [3]): 77% |
| CCCCCCCCCCCCCCCCCCNC(=O)OCC(COC(=O)N(CC[N+]1(C)CCCC1)C(C)=O)OC (centres unmarked) [Example 35, 3-O-[N-Acetyl-N-(2'-N-methylpyrrolidinioethyl)]carbamoyl-2-O-methyl-1-O-octadecylcarbamoylglycerol hydrochloride] | 80% | 100% | 100% | 73% | 45% | – | – | – |
| CCCCCCCCCCCCCCCCCCNC(=O)OCC(COC(=O)N(Cc1cccc[n+]1C)C(C)=O)OC (centres unmarked) [Example 104, 3-O-[N-Acetyl-N-(N-methylpyridnio-2-yl)methyl]carbamoyl-2-O-methyl-1-O-octadecylcarbamoylglycerol chloride] | – | 100% | 100% | – | 100% | – | – | Restoration rate (PAF-induced hypotension; 0.1 mg/kg i.v.): 94% |
| CCCCCCCCCCCCCCNC(=O)OCC(COC(=O)N(Cc1cccc[n+]1CC)C(C)=O)OC (centres unmarked) [Example 170, 3-[N-Acetyl-N-(N'-ethylpyridinio-2-yl)methyl]carbamoyl-2-methyl-1-tetradecylcarbamoylglycerol chloride] | – | 100% | 100% | – | 100% | 0.32 µg/mL | 77% | – |
| CCCCCCCCCCCCCCCCNC(=O)OCC(COC(=O)N(Cc1cccc[n+]1CC)C(C)=O)OC (centres unmarked) [Example 169, 3-[N-Acetyl-N-(N'-ethylpyridinio-2-yl)methyl]carbamoyl-1-hexadecylcarbamoyl-2-methylglycerol chloride] | – | 100% | 100% | – | 100% | 0.32 µg/mL | 59% | – |
| CCCCCCCCCCCCCCCCCCNC(=O)OCC(CN1CC(=O)N(CC[N+](C)(C)C)C1=O)OC (centres unmarked) [Example 115, 1-[(2-Methoxy-3-octadecylcarbamoyloxy)propyl]-3-[2-(trimethylammonio)ethyl]hydantoin chloride] | – | 100% | 100% | – | 9% | 1.25 µg/mL | 61% | – |
| CCCCCCCCCCCCCCCCCCNC(=O)OCC(COC(=O)N(CC1CCC[N+]1(C)CC)C(C)=O)OC (centres unmarked) [Example 45, 3-O-[N-Acetyl-N-(1'-ethyl-1'-methylpyrrolidinio-2'-yl)methyl]carbamoyl-2-O-methyl-1-O-octadecylcarbamoylglycerol iodide] | 100% | 100% | 100% | – | 41% | 0.48 µg/mL | 72% | Survival rate (PAF-induced death; [3]): 77% |
